Results as given in publication PMC12431657, “Discovery and mechanistic insights of dibenzoylmethane as a broad spectrum inhibitor of coronavirus” (PLOS Pathogens, 2025).
Values joined by “and” are separate entries in the source; they are usually repeats but may differ in a detail not shown here. Identical values can stand only once.

How the values were obtained:
Assay type in all cases: cell-based
HCoV-OC43 [1] = test: Time-of-addition assay; conditions: for time-of-addition, viral inhibition: replicates
Protocol: (§1) To obtain further insight into the stage at which DBM inhibits the replication of HCoV-OC43 and other HCoVs, RD cells were incubated with compounds, including DBM, remdesivir (RDV), and chloroquine (CQ), at different stages of viral infection. Viral RNA from the supernatant was extracted and quantitatively analysed via qRT-PCR. […] For the viral binding assay, cells were cultured in the presence or absence of DBM at different concentrations for 1 hour before being infected with HCoV-OC43 at an MOI of 50, and then were placed on ice for 2 hours for the viral particles to bind to the membrane of the host cells, followed by washing with PBS. […] In addition to binding to receptors from host cells, the spike proteins of HCoV-OC43 could also trigger membrane fusion when HCoV-OC43 spike plasmid-transfected 293T cells were seeded together with RD cells as target cells, and the addition of DBM had no effect on this process (S5C Fig). To examine whether DBM inhibits viral internalisation, cells were inoculated with HCoV-OC43 for 1 hour on ice before being treated with either DBM or DMSO, and CQ was included to prevent endosomal acidification. Subsequently, HCoV-OC43 nucleocapsid proteins were immunostained with CoraLite Plus 488 to assess viral internalisation via confocal microscopy. […] To determine whether DBM influences viral release, we quantified viral RNA both intracellularly and in the supernatant.
To evaluate the effects of DBM on the life cycle of HCoV-229E and HCoV-OC43, fresh culture medium containing 0.6 μM DBM, 0.1 μM remdesivir (RDV), or 10 μM chloroquine (CQ) was supplemented with preseeded cells at different time points relative to infection (entry group: 0 to –2 hours; postinfection group: 2–12 hours; and full-time group: 0 to –12 hours). DMSO served as the control. At 24 hours postinfection, the number of intracellular virus RNA copies was quantified by qRT-PCR as previously described.

HCoV-OC43 [2] = test: Viral binding assay; conditions: MOI of 50, on ice 2 hours
Protocol: as §1, with “Fig).” for “Fig). To examine whether DBM inhibits viral internalisation, cells were inoculated with HCoV-OC43 for 1 hour on ice before being treated with either DBM or DMSO, and CQ was included to prevent endosomal acidification. Subsequently, HCoV-OC43 nucleocapsid proteins were immunostained with CoraLite Plus 488 to assess viral internalisation via confocal microscopy.”
The cells were seeded onto 24-well plates and incubated overnight at 37 °C. […] The cells were washed three times with PBS before total RNA was extracted and analysed by qRT-PCR as previously described.

HCoV-OC43 [3] = test: Antiviral activity of DBM in the presence of IFN signalling suppressants
Protocol: Fig 6 DBM-mediated downregulation of caspase-6 restores IFN signalling suppressed by the coronavirus nucleocapsid protein. A) Intracellular levels of HCoV-OC43 nucleocapsid proteins and caspase-6 in HCoV-OC43-infected cells treated with serially diluted DBM or Z-VEID-FMK. Cells were pretreated with gradient-diluted DBM or Z-VEID-FMK prior to viral infection. B) Inhibitory effects of DBM against HCoV-OC43 and EV71. Cells were pre-treated with gradient-diluted DBM for 1 hour before inoculated with HCoV-OC43 or EV71, respectively. C) Attenuation of antiviral effects of DBM in IFN signalling-deficient cell lines. HEK293T-AT and Vero E6 cells were pre-treated with gradient-diluted DBM for 1 hour before infection. […] Cells were pretreated with gradient-diluted DBM or Z-VEID-FMK for 24 h, and then transfected with coronaviruses nucleocapsid proteins expression plasmid, and after 16 h of transfection, cells were treated with DMSO or STS. E) DBM alleviated the suppression of IFNB1 expression induced by coronaviruses nucleocapsid proteins and caspase-6. Cells were pretreated with DMSO or DBM for 24 h, subsequently, transfected with Poly(I:C) and plasmids. F) Impact of IFN signalling suppressants on the antiviral activity of DBM. Cells were pretreated with DMSO, Ruxolitinib or IFN alpha-IFNAR-IN-1 hydrochloride, respectively, for 1 hour. Subsequently, a gradient dilution of DBM was added to the medium, and then HCoV-OC43 was inoculated into the cells. Data were statistically analysed with Student’s T test. *: p ≤ 0.05, **: p ≤ 0.01, ***: p ≤ 0.001, ****: p ≤ 0.0001; ns, not significant. The experiments were repeated three times independently with similar results.
On the basis of this finding, we hypothesized that DBM downregulates caspase-6, reduces the cleavage of nucleocapsid proteins, and thereby enhances IFN signalling to inhibit viral replication. To test this hypothesis, we incubated cells transfected with plasmids expressing coronavirus nucleocapsid proteins in the presence or absence of DBM or Z-VEID-FMK. […] As the reduction in cleaved nucleocapsid protein fragments could theoretically […] IFN signalling, we sought to investigate the relationship between DBM treatment and IFN signalling. To this end, we further transfected cells with plasmids expressing both caspase-6 and coronavirus nucleocapsid proteins, and subsequently incubated the cells with or without DBM. […] Whereas the other two apoptosis-executing caspases, caspase-3 and caspase-7, could not inhibit IFN signalling in a similar system (S8C Fig). Furthermore, we examined the expression of IFNB1 and its downstream IFN-stimulated genes following DBM treatment in the context of HCoV-OC43 infection (S8D and S8E Fig).

## O=C(CC(=O)c1ccccc1)c1ccccc1 [DBM, dibenzoylmethane]
HCoV-OC43 [1]; Entry
  time-of-addition, viral inhibition: 44.1 and 45.1 and 75.5
HCoV-OC43 [1]; Full-Time
  time-of-addition, viral inhibition: 98.8 and 98.7 (2×)
HCoV-OC43 [1]; Post-Entry
  time-of-addition, viral inhibition: 79.3 and 93.6 and 93.3
HCoV-OC43 [1]; RD cells, 0.6 μM DBM
  HCoV-OC43 infection, compound incubated before and during virus infection: did not significantly inhibit
  replication of HCoV-OC43, compound added 2 hours after virus inoculation: potently inhibited
HCoV-OC43 [2]
  viral binding: did not interfere
HCoV-OC43 [3]; DBM 0.06, with DMSO
  Viral RNA copies (Fig6F): 8575323 and 7173199 and 8361273
HCoV-OC43 [3]; DBM 0.06, with IFNi
  Viral RNA copies (Fig6F): 714000 and 1370000 and 1200000
HCoV-OC43 [3]; DBM 0.19, with DMSO
  Viral RNA copies (Fig6F): 4042565 and 5441926 and 4875856
HCoV-OC43 [3]; DBM 0.19, with IFNi
  Viral RNA copies (Fig6F): 1160000 and 961000 and 754000
HCoV-OC43 [3]; DBM 0.19, with RUX
  Viral RNA copies (Fig6F): 1920000 and 2400000 and 1530000
HCoV-OC43 [3]; DBM 0.56, with DMSO
  Viral RNA copies (Fig6F): 380096 and 713734 and 725626
HCoV-OC43 [3]; DBM 0.56, with IFNi
  Viral RNA copies (Fig6F): 1150000 and 922000 and 1030000
HCoV-OC43 [3]; DBM 0.56, with RUX
  Viral RNA copies (Fig6F): 1380000 and 2020000 and 2160000
HCoV-OC43 [3]; DBM 1.67, with DMSO
  Viral RNA copies (Fig6F): 91512 and 73409 and 91292
HCoV-OC43 [3]; DBM 1.67, with IFNi
  Viral RNA copies (Fig6F): 807000 and 1340000
HCoV-OC43 [3]; DBM 1.67, with RUX
  Viral RNA copies (Fig6F): 2040000 and 3700000
HCoV-OC43 [3]; DBM 5.00, with DMSO
  Viral RNA copies (Fig6F): 87392 and 81273 and 92455
HCoV-OC43 [3]; DBM 5.00, with IFNi
  Viral RNA copies (Fig6F): 1300000 and 976000 and 920000
HCoV-OC43 [3]; DBM 5.00, with RUX
  Viral RNA copies (Fig6F): 1880000 and 1760000 and 2040000
HCoV-OC43 [3]; HCoV-OC43
  antiviral activity of DBM, cells pretreated with IFN alpha-IFNAR-IN-1 hydrochloride: markedly reduced
  antiviral activity of DBM, cells pretreated with ruxolitinib: markedly reduced
